Assay results as given in ChEMBL document CHEMBL1201862, “PubChem BioAssay data set” (2004).
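Exposure lasted 48 hours, with cells grown in 96-well plates and compounds tested at five concentrations. GI50 is the concentration that inhibits growth by half.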 Active and inactive are the calls of the source. Cut-off read from the data, not from the text of the source: active = GI50 up to about 1.1 µM and inactive = higher.

How the values were obtained:
Assay in all cases: NCI-60 cell line screen, 48 h
SF-295 = system: SF-295
OVCAR-5 = system: OVCAR-5
ACHN = system: ACHN
MDA-N = system: MDA-N
NCI/ADR-RES = system: NCI/ADR-RES
NCI-H226 = system: NCI-H226
786-0 = system: 786-0
LOX IMVI = system: LOX IMVI
U-251 = system: U-251
SK-OV-3 = system: SK-OV-3
KM12 = system: KM12
OVCAR-8 = system: OVCAR-8
T47D = system: T47D
NCI-H23 = system: NCI-H23
A498 = system: A498
HOP-62 = system: HOP-62
SR = system: SR
NCI-H522 = system: NCI-H522
A549 = system: A549
HCC 2998 = system: HCC 2998

Row | Compound | GI50 (SF-295) | GI50 (OVCAR-5) | GI50 (ACHN) | GI50 (MDA-N) | GI50 (NCI/ADR-RES) | GI50 (NCI-H226) | GI50 (786-0) | GI50 (LOX IMVI) | GI50 (U-251) | GI50 (SK-OV-3) | GI50 (KM12) | GI50 (OVCAR-8) | GI50 (T47D) | GI50 (NCI-H23) | GI50 (A498) | GI50 (HOP-62) | GI50 (SR) | GI50 (NCI-H522) | GI50 (A549) | GI50 (HCC 2998)
1 | CCC1=[N+](CC)CCN1CC | > 100 µM (inactive) | > 100 µM (inactive) | > 100 µM (inactive) | > 100 µM (inactive) | > 100 µM (inactive) | > 100 µM (inactive) | > 100 µM (inactive) | > 100 µM (inactive) | > 100 µM (inactive) | > 100 µM (inactive) | > 100 µM (inactive) | > 100 µM (inactive) | > 100 µM (inactive) | > 100 µM (inactive) | > 100 µM (inactive) | > 100 µM (inactive) | > 100 µM (inactive) | > 100 µM (inactive) | > 100 µM (inactive) | > 100 µM (inactive)
2 | CC(C)(C)SC1=CCC[C@@H](P(=O)(c2ccccc2)c2ccccc2)[C@@H]2CCC[C@@H]12 | 15.1 µM (inactive) | 13.6 µM (inactive) | 16.5 µM (inactive) | 16.1 µM (inactive) | 17.2 µM (inactive) | 17.7 µM (inactive) | 16.7 µM (inactive) | 17.5 µM (inactive) | 17.5 µM (inactive) | 15.9 µM (inactive) | 16.3 µM (inactive) | 18.3 µM (inactive) | 14 µM (inactive) | 17.2 µM (inactive) | 15.8 µM (inactive) | 17 µM (inactive) | 17 µM (inactive) | 15.7 µM (inactive) | 17.2 µM (inactive) | 16.2 µM (inactive)
3 | CC(C)/C(Cl)=N\OC(=O)Nc1cccc(F)c1 | 32.9 µM (inactive) | 17.7 µM (inactive) | 14.6 µM (inactive) | 15.4 µM (inactive) | 17.1 µM (inactive) | 17.2 µM (inactive) | 16 µM (inactive) | 2.14 µM (inactive) | 17.2 µM (inactive) | 19.7 µM (inactive) | 12.1 µM (inactive) | 17 µM (inactive) | 24.8 µM (inactive) | 15.9 µM (inactive) | 12.9 µM (inactive) | > 31.6 µM (inactive) | 2.35 µM (inactive) | 1.49 µM (inactive) | 17.5 µM (inactive) | 19.3 µM (inactive)
4 | COCn1c2ccc(OC(C)=O)cc2c2c(=O)oc(N(C)C)nc21 | > 100 µM (inactive) | > 100 µM (inactive) | > 100 µM (inactive) | > 100 µM (inactive) | > 100 µM (inactive) | > 100 µM (inactive) | > 100 µM (inactive) | > 100 µM (inactive) | > 100 µM (inactive) | > 100 µM (inactive) | > 100 µM (inactive) | > 100 µM (inactive) | > 100 µM (inactive) | > 100 µM (inactive) | > 100 µM (inactive) | > 100 µM (inactive) | > 100 µM (inactive) | > 100 µM (inactive) | > 100 µM (inactive) | > 100 µM (inactive)
5 | Cc1cc2nc(C#N)c(N3CCN(c4ccc([N+](=O)[O-])cc4)CC3)nc2cc1C | > 50.5 µM (inactive) | > 100 µM (inactive) | > 71.3 µM (inactive) | > 79.3 µM (inactive) | > 79.1 µM (inactive) | > 100 µM (inactive) | 52.7 µM (inactive) | > 100 µM (inactive) | > 74.6 µM (inactive) | > 69.5 µM (inactive) | > 100 µM (inactive) | > 56.2 µM (inactive) | 66.2 µM (inactive) | > 64.9 µM (inactive) | > 75.2 µM (inactive) | 40.6 µM (inactive) | > 100 µM (inactive) | > 54.1 µM (inactive) | > 100 µM (inactive) | > 100 µM (inactive)
6 | C#CC1(O)C(COP(=O)(O)OCC2OC(n3ccc(NCCCCCCCCCCCCCCCCCC)nc3=O)C(O)C2O)OC(n2ccc(N)nc2=O)C1O (configuration not stated) | 0.349 µM (active) | 5.36 µM (inactive) | 0.175 µM (active) | 1.14 µM (inactive) | 0.556 µM (active) | 0.757 µM (active) | 4.22 µM (inactive) | 0.048 µM (active) | 0.959 µM (active) | 8.13 µM (inactive) | 0.836 µM (active) | 1.07 µM (active) | 1.18 µM (inactive) | 3.73 µM (inactive) | 3.6 µM (inactive) | 4.04 µM (inactive) | < 0.0124 µM (active) | 0.032 µM (active) | 0.0525 µM (active) | 0.703 µM (active)
7 | CCOC(=O)C(Cc1c2ccccc2cc2ccccc12)(NC(C)=O)C(=O)OCC | > 65.9 µM (inactive) | > 100 µM (inactive) | > 63.1 µM (inactive) | > 83.9 µM (inactive) | > 50.2 µM (inactive) | 62.1 µM (inactive) | 76.4 µM (inactive) | > 100 µM (inactive) | > 80.5 µM (inactive) | > 100 µM (inactive) | 97.7 µM (inactive) | 67.6 µM (inactive) | 35.8 µM (inactive) | > 100 µM (inactive) | 55.5 µM (inactive) | > 56 µM (inactive) | 70.5 µM (inactive) | 64 µM (inactive) | > 72.8 µM (inactive) | > 100 µM (inactive)
8 | Cc1ccc(C)n1-n1c(Cc2ccccc2)n[nH]c1=O | > 100 µM (inactive) | > 100 µM (inactive) | > 100 µM (inactive) | > 100 µM (inactive) | > 100 µM (inactive) | > 100 µM (inactive) | > 100 µM (inactive) | > 100 µM (inactive) | > 100 µM (inactive) | > 100 µM (inactive) | > 100 µM (inactive) | > 100 µM (inactive) | > 100 µM (inactive) |  | > 100 µM (inactive) | > 100 µM (inactive) | > 100 µM (inactive) | 49.2 µM (inactive) | > 100 µM (inactive) | > 100 µM (inactive)
9 | COc1cc(OC(=O)c2ccccc2)cc2c1C(=O)C=CC2=O | 17.3 µM (inactive) | 32.7 µM (inactive) | 12.8 µM (inactive) | 6.44 µM (inactive) | 15.2 µM (inactive) | 28.4 µM (inactive) | 8.39 µM (inactive) | 12.3 µM (inactive) | 16.4 µM (inactive) | 20 µM (inactive) | 15.1 µM (inactive) | 18.9 µM (inactive) | 1.89 µM (inactive) | 16.2 µM (inactive) | 18.5 µM (inactive) | 42.9 µM (inactive) | 0.469 µM (active) | 5.31 µM (inactive) | 36.2 µM (inactive) | 4.58 µM (inactive)
10 | COC(=O)C1(Cc2cccc(C)c2)Cc2c(C)cccc2C1=O (configuration not stated) | 38.2 µM (inactive) | > 100 µM (inactive) | > 100 µM (inactive) | 14.3 µM (inactive) | 24 µM (inactive) | 44.9 µM (inactive) | 93.8 µM (inactive) | 50.1 µM (inactive) | 38.7 µM (inactive) | 58.6 µM (inactive) | 28.1 µM (inactive) | 80.7 µM (inactive) | 28.4 µM (inactive) | 37.5 µM (inactive) | 34 µM (inactive) | 59.6 µM (inactive) | > 100 µM (inactive) | 22.6 µM (inactive) | 38.6 µM (inactive) | 55.5 µM (inactive)
11 | C#C/C=C\CCCCCCCCCCCCCC/C=C\CCCCC#CC(O)C#CCCCC/C=C\CCCCCC/C=C/C(O)C#C (configuration not stated) | 17.7 µM (inactive) | 26.1 µM (inactive) | 20.8 µM (inactive) | 3.8 µM (inactive) | 31.5 µM (inactive) | 32.1 µM (inactive) | 11.8 µM (inactive) | 2.55 µM (inactive) | 31.9 µM (inactive) | > 75 µM (inactive) | 7.08 µM (inactive) | 23.3 µM (inactive) | 7.21 µM (inactive) | 9.64 µM (inactive) | 30.1 µM (inactive) | > 62.8 µM (inactive) | 14.1 µM (inactive) | 5.7 µM (inactive) | 12.1 µM (inactive) | 13.1 µM (inactive)
12 | O=C1C=C/C(=N/c2cccc3c(/N=C4/C=CC(=O)O4)cccc23)O1 | > 100 µM (inactive) | 54.8 µM (inactive) | 29 µM (inactive) | 27.3 µM (inactive) | 95.7 µM (inactive) | > 100 µM (inactive) | 19.4 µM (inactive) | 27.8 µM (inactive) | > 100 µM (inactive) | > 100 µM (inactive) | > 100 µM (inactive) | 20 µM (inactive) | 33.7 µM (inactive) | 50.4 µM (inactive) | > 100 µM (inactive) | > 100 µM (inactive) | 19.8 µM (inactive) | 18.7 µM (inactive) | > 100 µM (inactive) | > 100 µM (inactive)
13 | Clc1cc(Cl)nc(Nc2ccc3c(c2)CCC3)n1 | 48.5 µM (inactive) | 77.8 µM (inactive) | 35.1 µM (inactive) | 40.1 µM (inactive) | 48 µM (inactive) | 45 µM (inactive) | 39.1 µM (inactive) | 32.1 µM (inactive) | 62.5 µM (inactive) | > 100 µM (inactive) | 21.4 µM (inactive) | 72.3 µM (inactive) | 69.3 µM (inactive) | 39.6 µM (inactive) | 31.3 µM (inactive) |  | 30.3 µM (inactive) | 2.54 µM (inactive) | 32.6 µM (inactive) | 16.4 µM (inactive)
14 | COc1cc2c(c(OC)c1OC)-c1ccc(SC)cc1[C@H](OC(=O)c1ccccc1)CC2 | 0.0809 µM (active) | 0.622 µM (active) | 0.189 µM (active) | 0.0136 µM (active) | 0.0946 µM (active) | 0.237 µM (active) | 0.106 µM (active) | 0.0743 µM (active) | 0.071 µM (active) | 5.04 µM (inactive) | 0.0488 µM (active) | 0.158 µM (active) | 27.5 µM (inactive) | 0.0935 µM (active) | 0.437 µM (active) |  | 0.0247 µM (active) | 0.0324 µM (active) | 0.123 µM (active) | 0.32 µM (active)
